Assay results published in patent US11965159B2, “Compositions and methods for regulating proteins and nucleic acids activities” (THE BROAD INSTITUTE, INC., priority 2019, dated 2024).

Tests used:
SpCas9 = SpCas9 (Streptococcus pyogenes serotype M1, UniProt Q99ZW2); experiment: Cas9 nuclease activity in EGFP disruption assay in U2OS.eGFP.PEST cells; assay type: cell-based; parameters: host or cells: U2OS.eGFP-PEST; conditions: 10, 15, 20 μM, 24 h
Description: Cas9 Nuclease activity in EGFP disruption assay. Approximately 200,000 U2OS.eGFP-PEST cells were nucleofected with 400 ng of SpCas9 (Addgene Plasmid #43861) and 40 ng of sgRNA (pFYF1320 EGFP Site #1, Addgene Plasmid #47511) expressing plasmids along with a Td-tomato-encoding plasmid using the SE Cell Line 4D-Nucleofector™ X Kit (Lonza™) according to the manufacturer's protocol. Approximately 20,000 transfected cells/well in 3 replicates were plated in a 96-well plate (Corning® 3904). Cells were allowed to grow in the indicated amount of compound or DMSO for 24 h post transfection. Cells were then fixed using 4% paraformaldehyde and imaged with the HCS NuclearMask™ Blue Stain (Life Technologies™) as the nuclear counter-staining agent. Imaging was performed with an IXM 137204 ImageXpress® Automated High Content Microscope (Molecular Devices™) at 10× magnification under three excitation channels (blue, green and red) with 9 acquiring sites per well. Images were analyzed in the MetaXpress® software and data were plotted using GraphPad Prism 6. The Z′-value was calculated following the formula: […]
Cas9 Nuclease activity in EGFP disruption assay. In some embodiments, a quantitative human cell-based reporter assay that enables rapid quantitation of targeted nuclease activities is used to characterize off-target cleavage of CRISPR protein-based RNA guided endonucleases. In this assay, the activities of nucleases targeted to a single integrated EGFP reporter gene can be quantified by assessing loss of fluorescence signal in human U2OS.EGFP cells caused by inactivating frameshift insertion/deletion (indel) mutations introduced by error prone non-homologous end-joining (NHEJ) repair of nuclease-induced double-stranded breaks (DSBs).
Approximately 200,000 U2OS.eGFP-PEST cells were nucleofected with 400 ng of SpCas9 (Addgene Plasmid #43861) and 40 ng of sgRNA (pFYF1320 EGFP Site #1, Addgene Plasmid #47511) expressing plasmids along with a Td-tomato-encoding plasmid using the SE Cell Line 4D-Nucleofector™ X Kit (Lonza™) according to the manufacturer's protocol. […]

SpCas9:gRNA complex = molecular target: T1, SpCas9:gRNA complex (Streptococcus pyogenes serotype M1, UniProt Q99ZW2); experiment: Compound-Cas9 interaction in Bio-Layer Interferometry (BLI); assay type: binding; conditions: excess (10×) of biotin to BRD7087 loading
T1 construct: His6 (N, cleaved yes); made in house; host or cells: E. coli BL21 Star (DE3)
Description: Compound-Cas9 interaction in BLI. The experiments were performed in a 96-well format with 180 μL reaction volume using biotinylated compound BRD7087-Biotin and streptavidin sensors. 1 μM of the biotinylated compound was loaded onto the sensors for 180s in 20 mM Tris buffer of pH 7.4, 100 mM KCl, 5 mM MgCl2, 1 mM DTT, 0.01% Tween. The compound loaded sensors were then allowed to associate with the different concentration of SpCas9:gRNA complex (1-0.15 μM) for 300s followed by dissociation in the reaction buffer. Reference sensor was loaded with compound and allowed to associate and dissociate in the reaction buffer alone. The response curves were fitted with a 2:1 stoichiometric model and a global fit steady-state analysis were performed using manufacturer inbuilt protocol. The experiment was performed in three replicates.
The competitive experiments were performed using Biotin-linker fragment. In this experiment, streptavidin sensors were pre-incubated with 10 μM of Biotin-linker before dipping into a solution of either 1 μM BRD7087-Biotin or reaction buffer alone. Sensors were then allowed to associate with different concentration of SpCas9:gRNA complex or buffer alone.
Compound-Cas9 interaction in BLL The experiments were performed in a 96-well format with 180 μL reaction volume using biotinylated compound BRD7087-Biotin and streptavidin sensors. […]

Chain of SpCas9 (Q99ZW2 whole entry): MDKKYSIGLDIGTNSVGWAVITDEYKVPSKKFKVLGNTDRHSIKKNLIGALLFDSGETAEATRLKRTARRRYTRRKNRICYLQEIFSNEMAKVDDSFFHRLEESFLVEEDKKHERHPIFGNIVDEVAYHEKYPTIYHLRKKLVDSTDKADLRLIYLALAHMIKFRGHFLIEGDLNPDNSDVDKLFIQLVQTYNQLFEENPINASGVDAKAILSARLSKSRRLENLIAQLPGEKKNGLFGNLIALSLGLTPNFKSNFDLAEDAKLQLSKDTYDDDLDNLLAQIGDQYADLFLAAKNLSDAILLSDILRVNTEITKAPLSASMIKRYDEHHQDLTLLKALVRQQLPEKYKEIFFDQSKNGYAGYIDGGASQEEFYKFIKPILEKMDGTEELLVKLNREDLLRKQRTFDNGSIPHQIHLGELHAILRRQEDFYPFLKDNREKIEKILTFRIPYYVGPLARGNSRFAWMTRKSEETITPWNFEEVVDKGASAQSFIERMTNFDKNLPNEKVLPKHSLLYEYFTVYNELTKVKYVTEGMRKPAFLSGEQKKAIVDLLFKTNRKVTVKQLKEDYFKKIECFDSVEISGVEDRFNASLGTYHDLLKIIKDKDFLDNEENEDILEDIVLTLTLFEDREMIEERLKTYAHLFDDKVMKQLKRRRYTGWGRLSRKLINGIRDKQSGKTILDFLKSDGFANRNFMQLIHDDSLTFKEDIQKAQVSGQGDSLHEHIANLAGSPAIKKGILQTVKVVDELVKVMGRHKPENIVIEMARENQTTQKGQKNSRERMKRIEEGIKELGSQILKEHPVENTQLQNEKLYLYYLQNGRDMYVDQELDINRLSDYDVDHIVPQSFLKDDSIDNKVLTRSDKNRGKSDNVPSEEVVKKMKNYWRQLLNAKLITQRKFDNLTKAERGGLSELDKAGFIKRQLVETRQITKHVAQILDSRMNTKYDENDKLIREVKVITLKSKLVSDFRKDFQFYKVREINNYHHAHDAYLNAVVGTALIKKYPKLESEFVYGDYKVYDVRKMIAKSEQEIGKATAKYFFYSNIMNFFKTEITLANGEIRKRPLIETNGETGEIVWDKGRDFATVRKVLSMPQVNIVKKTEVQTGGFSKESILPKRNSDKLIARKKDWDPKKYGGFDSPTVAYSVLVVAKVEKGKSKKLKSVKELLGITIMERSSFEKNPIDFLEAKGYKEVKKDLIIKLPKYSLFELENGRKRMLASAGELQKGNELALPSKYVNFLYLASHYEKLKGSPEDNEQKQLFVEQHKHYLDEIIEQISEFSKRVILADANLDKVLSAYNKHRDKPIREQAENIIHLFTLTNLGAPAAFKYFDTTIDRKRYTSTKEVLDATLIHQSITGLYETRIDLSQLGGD
T1 sequence (Q99ZW2 whole entry, one chain of several): as the sequence (Q99ZW2 whole entry) above

Structure (SMILES)	potency of stereoisomers in EGFP-disruption assay relative to BRD7087 / BRD5779 (SpCas9)	BLI response signal in competitive experiment (SpCas9:gRNA complex)
OC[C@H]1Nc2ccc(-c3cccc(F)c3)cc2[C@@H]2[C@H]1CCN2Cc1ccncc1 [BRD0750, ((3aS,4S,9bS)-8-(3-Fluorophenyl)-1-(pyridin-4-ylmethyl)-2,3,3a,4,5,9b-hexahydro-1H-pyrrolo[3,2-c]quinolin-4-yl)methanol]	less potent	
OC[C@@H]1Nc2ccc(-c3cccc(F)c3)cc2[C@H]2[C@@H]1CCN2Cc1ccncc1 [BRD2161, ((3aR,4R,9bR)-8-(3-Fluorophenyl)-1-(pyridin-4-ylmethyl)-2,3,3a,4,5,9b-hexahydro-1H-pyrrolo[3,2-c]quinolin-4-yl)methanol]	less potent	
OC[C@@H]1Nc2ccc(-c3cccc(F)c3)cc2[C@@H]2[C@H]1CCN2Cc1ccncc1 [BRD5039, ((3aS,4R,9bS)-8-(3-Fluorophenyl)-1-(pyridin-4-ylmethyl)-2,3,3a,4,5,9b-hexahydro-1H-pyrrolo[3,2-c]quinolin-4-yl)methanol]	equipotent as BRD7087	
O=C(CCCC[C@@H]1SC[C@@H]2NC(=O)N[C@@H]21)NCCOCCOCCOCCC(=O)Nc1cccc(-c2ccc3c(c2)[C@H]2[C@H](CCN2Cc2ccncc2)[C@@H](CO)N3)c1 [biotin-conjugate of BRD7087, N-(2-(2-(2-(3-((3-((3aR,4S,9bR)-4-(Hydroxymethyl)-1-(pyridin-4-ylmethyl)-2,3,3a,4,5,9b-hexahydro-1H-pyrrolo[3,2-c]quinolin-8-yl)phenyl)amino)-3-oxopropoxy)ethoxy)ethoxy)ethyl)-5-((3aS,4S,6aR)-2-oxohexahydro-1H-thieno[3,4-d]imidazol-4-yl)pentanamide]		no substantial response signal
